Results from ChEMBL document CHEMBL2074207, “Functional characterization of human breast cancer resistance protein (BCRP, ABCG2) expressed in the oocytes of Xenopus laevis” (Mol Pharmacol, 2003).

Target: T1, Broad substrate specificity ATP-binding cassette transporter ABCG2 (Homo sapiens, UniProt Q9UNQ0)
T1 sequence (Q9UNQ0 whole entry): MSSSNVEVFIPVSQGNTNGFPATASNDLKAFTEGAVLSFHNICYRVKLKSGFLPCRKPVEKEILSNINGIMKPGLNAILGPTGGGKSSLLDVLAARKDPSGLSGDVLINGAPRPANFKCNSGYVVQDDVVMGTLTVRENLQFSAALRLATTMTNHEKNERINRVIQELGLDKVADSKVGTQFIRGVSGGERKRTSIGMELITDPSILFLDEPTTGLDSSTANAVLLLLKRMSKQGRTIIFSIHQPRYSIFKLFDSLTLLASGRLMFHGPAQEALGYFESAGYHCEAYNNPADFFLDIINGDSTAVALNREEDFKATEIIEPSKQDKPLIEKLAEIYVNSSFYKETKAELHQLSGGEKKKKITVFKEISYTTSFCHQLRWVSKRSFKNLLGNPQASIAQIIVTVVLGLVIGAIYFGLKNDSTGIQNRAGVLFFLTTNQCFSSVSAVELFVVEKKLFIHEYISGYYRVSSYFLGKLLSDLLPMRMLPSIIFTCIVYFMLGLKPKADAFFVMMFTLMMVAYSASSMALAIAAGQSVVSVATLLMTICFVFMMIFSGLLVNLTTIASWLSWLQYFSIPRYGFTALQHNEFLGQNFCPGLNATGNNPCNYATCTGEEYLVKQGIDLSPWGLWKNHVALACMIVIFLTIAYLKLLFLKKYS
Assay: TP_TRANSPORTER: uptake in BCRP-expressing oocyte cells
Type: functional, cell-based
Settings: xenopus laevis

SMILES | Activity
COc1cccc2c1C(=O)c1c(O)c3c(c(O)c1C2=O)C[C@@](O)(C(C)=O)C[C@@H]3O[C@H]1C[C@H](N)[C@H](O)[C@H](C)O1 [DAUNORUBICIN] | substrate []
COC(=O)c1ccccc1-c1c2ccc(=N)cc-2oc2cc(N)ccc12.Cl [RHODAMINE123] | substrate []
CN1CC[C@H](c2c(O)cc(O)c3c(=O)cc(-c4ccccc4Cl)oc23)[C@H](O)C1 [ALVOCIDIB] | substrate []
O=C1c2c(O)ccc(O)c2C(=O)c2c(NCCNCCO)ccc(NCCNCCO)c21 [MITOXANTRONE] | substrate []
